Experiments:
[1] = test system: symmetric di-methyl arginine in Z-138 cells; assay: Z-138 Methylation Assay (In Cell Western for symmetric di-methyl arginine and DNA content); assay type: cell-based; settings: Homo sapiens, In Cell Western methylation, read-out: ICW EC50
Summary of the method: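 Z-138 cells (50,000 cells/mL) treated with compound 96 h at 37 °C, then fixed and stained for symmetric di-methyl arginine (800 nm) with DRAQ5 DNA counterstain (700 nm) on Licor Odyssey.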

PRMT5/MEP50 = PRMT5/MEP50 (Homo sapiens (Human), UniProt O14744); assay: PRMT5 Biochemical Assay (PRMT5/MEP50 enzyme assay on peptide substrate, 3H-SAM Flashplate); settings: PRMT5 biochemical assay
Summary of the method: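 Radiometric methylation of a biotin-tagged H4(1-15) peptide by human PRMT5/MEP50 from baculovirus/Sf9, with ³H-SAM incorporation read on streptavidin Flashplates. Buffer: Bicine pH 7.6, TCEP, BSG, Tween20; compound preincubated 30 min at 25 °C; stopped with 600 µM final unlabeled SAM. DMSO and SAH controls; IC50 from fitted % inhibition.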

Z-138 cell line = assay: Z-138 Proliferation Assay (Cell Titer Glo, 5 days); assay type: cell-based; settings: Homo sapiens, 120 h; Z-138 cells, 5 days, Cell Titer Glo; read-out: Proliferation EC50
Summary of the method: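 Z-138 cells exposed 5 days at 37 °C, 5% CO2 to nine-point 3-fold dilutions (final top 20 μM, 0.2% DMSO), in triplicate. Viability read as ATP by CellTiter-Glo luminescence; IC50 from 4-parameter fit of normalized dose-response curves.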

PRMT5/MEP50, sequence (O14744 other isoform, or with tags, fused parts or gaps): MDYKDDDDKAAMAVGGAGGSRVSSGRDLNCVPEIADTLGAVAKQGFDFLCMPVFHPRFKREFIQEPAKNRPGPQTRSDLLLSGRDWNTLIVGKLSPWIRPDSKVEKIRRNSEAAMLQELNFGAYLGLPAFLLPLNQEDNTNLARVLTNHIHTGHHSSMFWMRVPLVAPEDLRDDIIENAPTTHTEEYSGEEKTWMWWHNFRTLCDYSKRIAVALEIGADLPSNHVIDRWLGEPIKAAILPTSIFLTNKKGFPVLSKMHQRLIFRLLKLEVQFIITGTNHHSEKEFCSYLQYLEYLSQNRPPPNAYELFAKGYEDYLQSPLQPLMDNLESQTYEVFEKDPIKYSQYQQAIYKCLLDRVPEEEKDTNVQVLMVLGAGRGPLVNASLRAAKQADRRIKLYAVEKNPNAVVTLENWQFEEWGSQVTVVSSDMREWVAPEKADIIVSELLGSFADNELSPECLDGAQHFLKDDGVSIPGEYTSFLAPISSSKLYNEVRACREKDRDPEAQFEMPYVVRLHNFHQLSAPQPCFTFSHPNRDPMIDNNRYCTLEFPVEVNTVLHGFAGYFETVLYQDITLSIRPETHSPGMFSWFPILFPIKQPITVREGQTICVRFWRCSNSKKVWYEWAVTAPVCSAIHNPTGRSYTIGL
PRMT5/MEP50, sequence (Q9BQA1 other isoform, or with tags, fused parts or gaps partner): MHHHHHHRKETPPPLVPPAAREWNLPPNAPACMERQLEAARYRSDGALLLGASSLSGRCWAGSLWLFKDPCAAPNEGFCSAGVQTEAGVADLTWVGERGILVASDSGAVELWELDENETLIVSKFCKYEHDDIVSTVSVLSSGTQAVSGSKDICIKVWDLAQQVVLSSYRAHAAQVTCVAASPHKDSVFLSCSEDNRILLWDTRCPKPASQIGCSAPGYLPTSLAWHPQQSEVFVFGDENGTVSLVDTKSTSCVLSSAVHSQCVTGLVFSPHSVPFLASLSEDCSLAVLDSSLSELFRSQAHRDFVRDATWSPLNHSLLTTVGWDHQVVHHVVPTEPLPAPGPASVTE

EC50 [1] [nM] | IC50 (PRMT5/MEP50) [nM] | Compound | EC50 (Z-138 cell line) [nM]
101 to 1000 | < 100 | O=C(NC[C@H](O)CN1CCc2ccccc2C1)c1cnnc(OC2CCNCC2)c1 [Compound 619] | 10000 to 50000
< 100 | < 100 | O=C(NC[C@H](O)CN1CCc2ccccc2C1)c1cc(NC2CNC2)ccn1 [Compound 565] | 101 to 1000
< 100 | < 100 | CC(=O)N1CC[C@@H](Nc2cc(C(=O)NC[C@H](O)CN3CCc4ccccc4C3)ncn2)C1 [Compound 642] | 101 to 1000

Source: patent US10307413B2, “Tetrahydro- and dihydro-isoquinoline PRMT5 inhibitors and uses thereof” (Epizyme, Inc., priority 2013, dated 2019)
